Data from patent US20100197590A1, “4-AMINO-7,8-DIHYDROPYRIDO[4,3-d]PYRIMIDIN-5(6H)-ONE DERIVATIVES” (Pfizer Inc, priority 2009, published 2010).

target: T1, Human full-length diacylglycerol:acylCoA acyltransferase 1 (DGAT-1) (Homo sapiens, UniProt O75907); test: In vitro DGAT-1 inhibition, Assay 1; assay type: biochemical; conditions: Sf9 microsomes at 25 μg/mL, [14C]decanoylCoA, eight inhibitor concentrations; average where n > 1
T1 construct: Human full-length diacylglycerol:acylCoA acyltransferase 1 (DGAT-1) was expressed in Sf9 insect cells; made in house; host or cells: Sf9 insect cells (baculovirus)
T1 sequence (O75907 1-488): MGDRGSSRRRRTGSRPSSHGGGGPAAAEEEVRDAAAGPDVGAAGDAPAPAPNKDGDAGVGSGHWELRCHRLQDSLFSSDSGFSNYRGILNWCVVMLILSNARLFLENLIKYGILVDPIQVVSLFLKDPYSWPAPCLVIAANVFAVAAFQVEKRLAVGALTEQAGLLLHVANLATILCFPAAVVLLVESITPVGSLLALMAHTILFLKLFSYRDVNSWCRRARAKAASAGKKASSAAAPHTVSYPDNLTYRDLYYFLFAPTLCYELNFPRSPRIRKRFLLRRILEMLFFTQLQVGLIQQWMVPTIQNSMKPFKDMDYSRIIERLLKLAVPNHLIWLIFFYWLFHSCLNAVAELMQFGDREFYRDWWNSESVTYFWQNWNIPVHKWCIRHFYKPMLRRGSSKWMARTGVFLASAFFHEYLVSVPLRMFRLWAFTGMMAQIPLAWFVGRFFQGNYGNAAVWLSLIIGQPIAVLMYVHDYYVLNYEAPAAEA
Experimental: Human full-length diacylglycerol:acylCoA acyltransferase 1 (DGAT-1) was expressed in Sf9 insect cells which are then lysed and a crude membrane fraction (105,000×g pellet) was prepared. The DGAT-1 gene is a human DGAT-1 gene described in J Biol Chem 273:26765 (1998) and U.S. Pat. No. 6,100,077.
In vitro inhibition of DGAT-1 was measured using a modification, further described below, of the assay methodology described in U.S. Pat. No. 6,994,956 B2. The cells were cultured as follows. Sf9 cells (20 L) were infected with 4 mL of DGAT-1 Baculovirus Infected Insect Cells (BIIC) for 72 hours in a Wave Bioreactor System 20/50P (Wave Biotec/GE Healthcare).
Crude DGAT-1 microsomes were prepared as follows. Cell pellets were washed once with ice-cold Dulbecco's phosphate-buffered saline. Cells were collected in tabletop centrifuge (Beckman GS-6KR), 15 minutes, 2000×g, 4° C. Twenty (20) mL of ice-cold Microsome Buffer (MB) was added per 5 g of cell pellet. The suspension was passed through a microfluidizer 3 times (18K psi). […] The microsome concentration was determined using Bio-Rad Protein DC Protein Assay. […]
The Microsome Buffer, used for microsome preparation, was prepared by conventional means and contained 125 mM sucrose, 3 mM imidazole, 0.2 μg/mL aprotinin, 0.2 μg/mL leupeptin and 5 mM dithiothreitol (Cleland's reagent) at pH-7.4 DGAT-1 activity was measured in 384-well format in a total assay volume of 20 μl that contained, Hepes buffer (50 mM, pH 7.5), MgCl2 (10 mM), bovine serum albumin (0.6 mg/ml), [^14C]decanoylCoA (25 μM, 58 Ci/mol) and microsomes (5.6 μg/ml) into which 1,2 dioleoyl-sn-glycerol (75 μM) in acetone has already been incorporated. […]
The reactions were allowed to proceed for 1.5 h at room temperature and then terminated by the addition of 20 μl of EDTA (40 mM). […] Plates contents were allowed to partition for 15 to 30 min before ^14C was measured in a scintillation spectrometer (Wallac Microbeta Trilux 1450-030, 12 detector in the top-count DPM mode). […]

IC50 [nM]	Compound
231	Cc1nc(N)c2c(n1)CCN(c1ccc(C3CCC(CC(=O)O)CC3)cc1)C2=O (stereo not drawn) [Example 13, 2-(4-(4-(4-amino-2-methyl-5-oxo-7,8-dihydropyrido[4,3-d]pyrimidin-6(5H)-yl)phenyl)cyclohexyl)acetic acid]
618	Cc1nc(N)c2c(n1)CCN(c1ccc([C@H]3CC[C@H](CC(=O)O)CC3)cc1)C2=O [Example 14, {trans-4-[4-(4-amino-2-methyl-5-oxo-7,8-dihydropyrido[4,3-d]pyrimidin-6(5H)-yl)phenyl]cyclohexyl}acetic acid]
717	Cc1nc(N)c2c(n1)CCN(c1ccc([C@H]3CC[C@@H](CC(=O)O)CC3)cc1)C2=O [Example 15, {cis-4-[4-(4-amino-2-methyl-5-oxo-7,8-dihydropyrido[4,3-d]pyrimidin-6(5H)-yl)phenyl]cyclohexyl}acetic acid]
